Measured values published in PubChem BioAssay AID330 (DTP/NCI, 2004).
Where “and” joins values, the source holds several entries; their conditions need not be identical. Identical values can stand only once. Toxic doses and inconclusive results are not listed.

System: P388 leukemia ip, CD2F1 mice, survival T/C
Experiment: NCI In Vivo Anticancer Drug Screen. Data for tumor model P388 Leukemia (intraperitoneal) in CD2F1 (CDF1) mice
Details: endpoint: median survival time, higher = longer survival
In short: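 Mice carrying the transplanted tumor received test compound or vehicle. Survival was recorded in each group, and the value is the treated-group measurement divided by that of the vehicle-treated control group.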

[1] = dose: 50.0 mg/kg/injection, schedule: Q01DX009 (ip), vehicle: saline
[2] = dose: 100.0 mg/kg/injection, schedule: Q01DX009 (ip), vehicle: saline
[3] = dose: 200.0 mg/kg/injection, schedule: Q01DX009 (ip), vehicle: saline
[4] = dose: 100.0 mg/kg/injection, schedule: Q01DX001 (ip), vehicle: saline with Tween-80
[5] = dose: 200.0 mg/kg/injection, schedule: Q01DX001 (ip), vehicle: saline with Tween-80
[6] = dose: 50.0 mg/kg/injection, schedule: Q01DX005 (ip), vehicle: Klucel (hydroxypropylcellulose) (HPC)

SMILES: Cn1cnc2cc(NCCO)c([N+](=O)[O-])cc2c1=O
- T/C (dose: 100.0 mg/kg/injection, schedule: Q04DX003 (ip), vehicle: saline): 105 % of control
- T/C (dose: 200.0 mg/kg/injection, schedule: Q04DX003 (ip), vehicle: saline): 119 % of control
- T/C (dose: 400.0 mg/kg/injection, schedule: Q04DX003 (ip), vehicle: saline): 96 % of control

SMILES: CC(O)CN1C=NC(C)C1 (stereo unspecified)
- T/C [1]: 95 % of control
- T/C [2]: 100 % of control
- T/C [3]: 103 % of control

SMILES: CCOC(=O)c1[nH]ncc1[N+](=O)[O-]
- T/C [4]: 103 % of control
- T/C [5]: 102 % of control
- T/C (dose: 400.0 mg/kg/injection, schedule: Q01DX001 (ip), vehicle: saline with Tween-80): 102 % of control

SMILES: O=C(CCl)N1CCN(C(c2ccccc2)c2ccccc2)CC1
- T/C (dose: 60.0 mg/kg/injection, schedule: Q01DX005 (ip), vehicle: saline with Tween-80): 99 % of control
- T/C (dose: 120.0 mg/kg/injection, schedule: Q01DX005 (ip), vehicle: saline with Tween-80): 100 % of control
- T/C (dose: 240.0 mg/kg/injection, schedule: Q01DX005 (ip), vehicle: saline with Tween-80): 99 % of control

SMILES: CCOC(=O)C1(COS(=O)(=O)c2ccc(C)cc2)C(=O)Nc2ccccc21 (stereo unspecified)
- T/C (dose: 50.0 mg/kg/injection, schedule: Q01DX009 (ip), vehicle: Klucel (hydroxypropylcellulose) (HPC)): 100 % of control
- T/C (dose: 100.0 mg/kg/injection, schedule: Q01DX009 (ip), vehicle: Klucel (hydroxypropylcellulose) (HPC)): 100 % of control
- T/C (dose: 200.0 mg/kg/injection, schedule: Q01DX009 (ip), vehicle: Klucel (hydroxypropylcellulose) (HPC)): 97 % of control

SMILES: CCOC(=O)c1ccc(NC(=S)NC(=O)c2ccco2)o1
- T/C (dose: 50.0 mg/kg/injection, schedule: Q01DX009 (ip), vehicle: saline with Tween-80): 92 % of control
- T/C (dose: 100.0 mg/kg/injection, schedule: Q01DX009 (ip), vehicle: saline with Tween-80): 100 % of control
- T/C (dose: 200.0 mg/kg/injection, schedule: Q01DX009 (ip), vehicle: saline with Tween-80): 92 % of control

SMILES: CCCCN(CCCC)CCCC(C(C)=O)C(=O)OCC (stereo unspecified)
- T/C [6]: 102 % of control
- T/C (dose: 100.0 mg/kg/injection, schedule: Q01DX005 (ip), vehicle: Klucel (hydroxypropylcellulose) (HPC)): 104 % of control

SMILES: C/C(=N\N1CN(C(C)C(=O)O)P(N(CCO)CCO)N=C1N)c1cccs1 (stereo unspecified)
- T/C (dose: 7.5 mg/kg/injection, schedule: Q01DX005 (ip), vehicle: saline): 98 % of control
- T/C (dose: 15.0 mg/kg/injection, schedule: Q01DX005 (ip), vehicle: saline): 101 % of control
- T/C (dose: 30.0 mg/kg/injection, schedule: Q01DX005 (ip), vehicle: saline): 98 % of control

SMILES: CN(C)c1ccc(NN=O)nc1
- T/C (dose: 1.56 mg/kg/injection, schedule: Q01DX009 (ip), vehicle: water): 122 % of control
- T/C (dose: 6.25 mg/kg/injection, schedule: Q01DX009 (ip), vehicle: water): 150 % of control
- T/C (dose: 12.5 mg/kg/injection, schedule: Q01DX009 (ip), vehicle: water): 110 % of control

SMILES: O=C1OCCOCCOCCOC(=O)c2ccccc2SSc2ccccc21
- T/C [4]: 90 % of control
- T/C [5]: 97 % of control

SMILES: N#CC(Br)C(N)=O (stereo unspecified)
- T/C (dose: 1.25 mg/kg/injection, schedule: Q01DX009 (ip), vehicle: saline with Tween-80): 104 % of control
- T/C (dose: 2.5 mg/kg/injection, schedule: Q01DX009 (ip), vehicle: saline with Tween-80): 124 % of control
- T/C (dose: 5.0 mg/kg/injection, schedule: Q01DX009 (ip), vehicle: saline with Tween-80): 119 % of control

SMILES: NC(=O)c1cn[nH]c1N
- T/C (dose: 25.0 mg/kg/injection, schedule: Q01DX009 (ip), vehicle: suspension in saline): 118 % of control
- T/C [1]: 90 % of control
- T/C (dose: 50.0 mg/kg/injection, schedule: Q01DX009 (ip), vehicle: suspension in saline): 97 % of control
- T/C [2]: 90 % of control
- T/C (dose: 100.0 mg/kg/injection, schedule: Q01DX009 (ip), vehicle: suspension in saline): 104 % of control
- T/C [3]: 87 % of control
- T/C (dose: 200.0 mg/kg/injection, schedule: Q01DX009 (ip), vehicle: suspension in saline): 94 % of control

SMILES: NCCSSc1ccccc1[N+](=O)[O-]
- T/C (dose: 12.5 mg/kg/injection, schedule: Q01DX005 (ip), vehicle: Klucel (hydroxypropylcellulose) (HPC)): 98 % of control
- T/C (dose: 25.0 mg/kg/injection, schedule: Q01DX005 (ip), vehicle: Klucel (hydroxypropylcellulose) (HPC)): 94 % of control
- T/C [6]: 98 % of control and 90 % of control
